Data as given in US9950073B2, “Peptide sequence design and use thereof for peptide-mediated siRNA delivery” (Positec Power Tools (Suzhou) Co Ltd, priority 2011, dated 2018).

System: siRNA
Assay: Fluorescence spectroscopy of peptide-siRNA interaction
Assay type: binding
Method: The peptide C6M1 was used in this experiment to study the interaction between peptide and siRNA using fluorescence spectroscopy method. C6M1 has four tryptophan amino acids which can be used as fluorescence probe. […] A blue shift from 355 to 330 nm was also observed in molar ratios of less than 40:1, clearly at 20:1 and 10:1, probably due to the change in the environment of tryptophan by adding more hydrophilic siRNA molecules.
A similar experiment was also performed by tracking the fluorescence property of labeled siRNA, interacting with C6M1. […] The red shift could also be an indicator of a change in the siRNA environment and/or conformational change in siRNA structure upon interacting with peptides.

With RLWRLLWRLWRRLWRLLR (C6M1) the “tryptophan fluorescence intensity of C6M1 on adding siRNA” value (fixed C6M1 concentration, more siRNA added) was “intensity of fluorescence decreased”, the “fluorescence spectra of labeled siRNA” value (low molar ratios of 2:1 and 4:1) was “no significant change” and the “fluorescence intensity of labeled siRNA” value (molar ratios of 10:1 and 20:1) was “intensity decreased”. For the same sequence, the “blue shift of fluorescence” value (molar ratios of less than 40:1, clearly at 20:1 and 10:1) was 355 to 330 nm.
